Measured values taken from ChEMBL document CHEMBL1201862, “PubChem BioAssay data set” (2004).
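Values below derive from 48-hour exposures of cells grown in 96-well plates, with endpoints linearly interpolated between the two concentrations bracketing the appropriate inhibition level. GI50 = concentration required for 50% inhibition of growth.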 Calls of active or inactive are those of the source. Rule as the data show it: active = GI50 up to about 1.1 µM and inactive = higher. Where a SMILES comes first, the peptide text is derived from it. The star is where a group is joined. Fmoc = O=C(OCC1c2ccccc2-c2ccccc21)*; OBn = c1ccc(CO*)cc1; tBu = CC(C)(C)*

Tests used:
Assay in all cases: DTP human tumour cell line panel, 48 h
[1] = tested on: A549
[2] = tested on: ACHN
[3] = tested on: CAKI-1
[4] = tested on: CCRF-CEM
[5] = tested on: COLO 205
[6] = tested on: DU-145
[7] = tested on: HCC 2998
[8] = tested on: HT-29
[9] = tested on: Hs-578T
[10] = tested on: LOX IMVI
[11] = tested on: MCF7
[12] = tested on: MDA-MB-435
[13] = tested on: MDA-N
[14] = tested on: NCI-H226
[15] = tested on: OVCAR-5
[16] = tested on: SF-539
[17] = tested on: SK-MEL-28
[18] = tested on: SNB-75
[19] = tested on: SR
[20] = tested on: TK-10

Compound	GI50 [1]	GI50 [2]	GI50 [3]	GI50 [4]	GI50 [5]	GI50 [6]	GI50 [7]	GI50 [8]	GI50 [9]	GI50 [10]	GI50 [11]	GI50 [12]	GI50 [13]	GI50 [14]	GI50 [15]	GI50 [16]	GI50 [17]	GI50 [18]	GI50 [19]	GI50 [20]
O=C(O)CCCCn1cnc2c(S)ncnc21	> 100 µM (inactive)	> 100 µM (inactive)	> 100 µM (inactive)	4.33 µM (inactive)	> 100 µM (inactive)	> 100 µM (inactive)	> 100 µM (inactive)	> 100 µM (inactive)	> 100 µM (inactive)	> 100 µM (inactive)	> 100 µM (inactive)	> 100 µM (inactive)	> 100 µM (inactive)	> 100 µM (inactive)	> 100 µM (inactive)	> 100 µM (inactive)	> 100 µM (inactive)	> 100 µM (inactive)	> 100 µM (inactive)	> 100 µM (inactive)
COc1cccc(-c2cc(O)c3cc(N4CCCC4)ccc3n2)c1	< 0.001 µM (active)	0.00113 µM (active)	< 0.001 µM (active)	< 0.001 µM (active)	< 0.001 µM (active)	< 0.001 µM (active)	0.00206 µM (active)	< 0.001 µM (active)	< 0.001 µM (active)	< 0.001 µM (active)	0.0394 µM (active)	< 0.001 µM (active)	< 0.001 µM (active)	< 0.001 µM (active)	0.00328 µM (active)	< 0.001 µM (active)	< 0.001 µM (active)	< 0.001 µM (active)	< 0.001 µM (active)	2.6 µM (inactive)
COc1cccc(C2c3cc4c(cc3OC(Nc3ccccc3)C2C)OCO4)c1OC (stereo not given)	6.04 µM (inactive)	3.94 µM (inactive)	3.87 µM (inactive)	2.88 µM (inactive)	4.98 µM (inactive)	7.08 µM (inactive)	74.1 µM (inactive)	11.2 µM (inactive)	3.08 µM (inactive)	3.77 µM (inactive)	6.89 µM (inactive)	14.8 µM (inactive)	34.8 µM (inactive)	1.84 µM (inactive)	44.5 µM (inactive)	13.2 µM (inactive)	41.3 µM (inactive)	20.5 µM (inactive)	0.809 µM (active)	6.46 µM (inactive)
CC(=O)NCCC1CN(C(=O)/C=C\I)c2ccccc21 (stereo not given)	13.8 µM (inactive)	14.5 µM (inactive)	1.73 µM (inactive)	3.03 µM (inactive)	11.7 µM (inactive)	13.9 µM (inactive)	15.2 µM (inactive)	11.7 µM (inactive)	27.2 µM (inactive)	3.08 µM (inactive)	2.56 µM (inactive)	14.2 µM (inactive)	12.6 µM (inactive)	10.7 µM (inactive)	16.6 µM (inactive)	5.32 µM (inactive)	16 µM (inactive)	17.8 µM (inactive)	> 33.7 µM (inactive)	6.17 µM (inactive)
N#Cc1nc(/C=C/c2ccccc2)oc1N	> 100 µM (inactive)	> 100 µM (inactive)	> 100 µM (inactive)	> 100 µM (inactive)	> 100 µM (inactive)	> 100 µM (inactive)	> 100 µM (inactive)	> 100 µM (inactive)	> 100 µM (inactive)	> 100 µM (inactive)	> 100 µM (inactive)	> 100 µM (inactive)	> 100 µM (inactive)	> 100 µM (inactive)	> 100 µM (inactive)	> 100 µM (inactive)	> 100 µM (inactive)	> 100 µM (inactive)	0.252 µM (active)	> 100 µM (inactive)
CCOC(=O)c1c(N2CCCC2)[nH]c(=O)c(C(c2ccco2)c2c(O)c(C(=O)OCC)c(N3CCCC3)[nH]c2=O)c1O	> 100 µM (inactive)	95.5 µM (inactive)	> 100 µM (inactive)	> 100 µM (inactive)	> 100 µM (inactive)	> 100 µM (inactive)	> 100 µM (inactive)	> 100 µM (inactive)	27.9 µM (inactive)	37.4 µM (inactive)	> 100 µM (inactive)	> 100 µM (inactive)	> 100 µM (inactive)	> 100 µM (inactive)	67.9 µM (inactive)	> 100 µM (inactive)	> 100 µM (inactive)	23.4 µM (inactive)	> 100 µM (inactive)	> 100 µM (inactive)
Cc1ccc(S(=O)(=O)N2CC(CCN)c3ccccc32)cc1 (stereo not given)	9.51 µM (inactive)	8.41 µM (inactive)	6.38 µM (inactive)	> 100 µM (inactive)	4.06 µM (inactive)	3.87 µM (inactive)	4.76 µM (inactive)	2.89 µM (inactive)	5.62 µM (inactive)	2.99 µM (inactive)	1.47 µM (inactive)	1.53 µM (inactive)	0.883 µM (active)	2.45 µM (inactive)	4.43 µM (inactive)	3.17 µM (inactive)	5.16 µM (inactive)	5.46 µM (inactive)	5.19 µM (inactive)	7.89 µM (inactive)
CCOP(=O)(OCC)/C(C#N)=C/c1cnc(C)[nH]1	> 100 µM (inactive)	> 100 µM (inactive)	> 100 µM (inactive)	> 100 µM (inactive)	> 100 µM (inactive)	> 100 µM (inactive)	> 100 µM (inactive)	> 100 µM (inactive)	> 100 µM (inactive)	> 100 µM (inactive)	> 100 µM (inactive)	> 100 µM (inactive)	> 100 µM (inactive)	> 100 µM (inactive)	> 100 µM (inactive)	> 100 µM (inactive)	> 100 µM (inactive)	> 100 µM (inactive)	> 100 µM (inactive)	> 100 µM (inactive)
Cc1occc1C(=S)Nc1ccc(Cl)c(/C=N/OC(C)C)c1	22.3 µM (inactive)	21.2 µM (inactive)	17.3 µM (inactive)	18.1 µM (inactive)	16.9 µM (inactive)	24 µM (inactive)	26.5 µM (inactive)	19.3 µM (inactive)	26.7 µM (inactive)	16 µM (inactive)	19.1 µM (inactive)	16.4 µM (inactive)	20.8 µM (inactive)	18.2 µM (inactive)	21 µM (inactive)	16.7 µM (inactive)	27 µM (inactive)	25.1 µM (inactive)	21.1 µM (inactive)	25.5 µM (inactive)
COc1ccc2c(c1)C(=O)[C@@](Nc1ccc(C=O)cc1)(OC)[C@@](OC)(c1ccc([N+](=O)[O-])cc1)O2	7.67 µM (inactive)	> 10 µM (inactive)	> 10 µM (inactive)	> 10 µM (inactive)	> 10 µM (inactive)	> 10 µM (inactive)	> 10 µM (inactive)	> 10 µM (inactive)	> 10 µM (inactive)	> 10 µM (inactive)	> 10 µM (inactive)	> 10 µM (inactive)	> 10 µM (inactive)	6.12 µM (inactive)	> 10 µM (inactive)	> 10 µM (inactive)	> 10 µM (inactive)	3.91 µM (inactive)	> 10 µM (inactive)	> 10 µM (inactive)
O=c1cc(N=P(c2ccccc2)(c2ccccc2)c2ccccc2)n(-c2ccccc2)c(=O)n1-c1ccccc1	6.25 µM (inactive)	4.33 µM (inactive)	12.7 µM (inactive)	8.63 µM (inactive)	6.56 µM (inactive)	9.51 µM (inactive)	8.26 µM (inactive)	15.9 µM (inactive)	18.2 µM (inactive)	8.77 µM (inactive)	6.03 µM (inactive)	5.2 µM (inactive)	7.64 µM (inactive)	3.92 µM (inactive)	23.2 µM (inactive)	3.76 µM (inactive)	23.9 µM (inactive)	10.1 µM (inactive)	4.28 µM (inactive)	15.2 µM (inactive)
Cc1cn(C2CC(N=[N+]=[N-])C(COP(=O)(O)OCC3OC(n4cc(F)c(=O)[nH]c4=O)CC3O)O2)c(=O)[nH]c1=O (stereo not given)	0.368 µM (active)	0.63 µM (active)	1.32 µM (inactive)	0.312 µM (active)	> 100 µM (inactive)	4.1 µM (inactive)	> 100 µM (inactive)	> 100 µM (inactive)	> 100 µM (inactive)	0.653 µM (active)	0.137 µM (active)	16 µM (inactive)	38.3 µM (inactive)	> 100 µM (inactive)	> 100 µM (inactive)	0.0438 µM (active)	> 77.4 µM (inactive)	9.06 µM (inactive)	1.92 µM (inactive)	> 100 µM (inactive)
Cc1ccc(/N=N\c2c(O)c(S(=O)(=O)O)cc3cc(S(=O)(=O)O)ccc23)c(C)c1	> 100 µM (inactive)	> 100 µM (inactive)	> 100 µM (inactive)	> 100 µM (inactive)	> 100 µM (inactive)	> 100 µM (inactive)	> 100 µM (inactive)	> 100 µM (inactive)	> 100 µM (inactive)	> 100 µM (inactive)	> 100 µM (inactive)	> 100 µM (inactive)	> 100 µM (inactive)	> 100 µM (inactive)	> 100 µM (inactive)	> 100 µM (inactive)	> 100 µM (inactive)	> 100 µM (inactive)	> 100 µM (inactive)	> 100 µM (inactive)
CC(OC(C)(C)C)C(NC(=O)OCC1c2ccccc2-c2ccccc21)C(=O)NC(Cc1ccccc1)C(=O)OCc1ccccc1 (stereo not given) (Fmoc-Thr(tBu)-Phe-OBn; configuration not given here)	> 100 µM (inactive)	> 100 µM (inactive)	> 100 µM (inactive)	> 100 µM (inactive)	> 100 µM (inactive)	> 100 µM (inactive)	> 100 µM (inactive)	> 100 µM (inactive)	> 100 µM (inactive)	> 100 µM (inactive)	> 100 µM (inactive)	> 100 µM (inactive)	> 100 µM (inactive)	> 100 µM (inactive)	> 100 µM (inactive)	> 100 µM (inactive)	> 100 µM (inactive)	> 100 µM (inactive)	> 87.9 µM (inactive)	> 100 µM (inactive)
